Measurements from patent US10421781B2, “Antimicrobial peptide and use thereof” (NOVACELL TECHNOLOGY INC., priority 2015, dated 2019).

Legend:
E. coli = assay: antibacterial test in nutrient broth (absorbance at 600 nm); format: cell-based, Escherichia coli
Description: (§1) In order to further improve the antibacterial activity of the peptides prepared in Example 2, an antibacterial test was performed. Gram-positive bacteria Staphylococcus epidermidis and Staphylococcus aureus) and gram-negative bacteria (Pseudomonas aeruginosa and E. coli) were prepared, streaked on agar plate medium using a four-quadrant sequential streak technique, and cultured in a 36° C. incubator overnight. On the next day, the strain colonies on the agar plate medium were inoculated into nutrient broth (3 mL) and cultured overnight at 36° C. and 220 rpm in a shaking incubator. On the next day, the bacteria culture was diluted and the absorbance at 600 nm was measured and adjusted to 0.5. Then, the bacteria culture was diluted in nutrient broth in a 1:100 ratio. Then, the peptides prepared in Example 2 were sequentially diluted in nutrient broth at concentrations of 0 μM, 1.25 μM, 2.5 μM, 5 μM, 10 μM, and 20 μM in an amount of 1 mL, respectively, and 1 mL of the diluted bacteria was inoculated, and cultured overnight at 36° C. and 220 rpm in a shaking incubator for 18 hours. Then, the absorbance was measured at 600 nm and the results were analyzed.

[1] = test system: atopic dermatitis induced by capsaicin (2 W Cap); assay: 2 W Cap model of atopic dermatitis induced by capsaicin; format: in vivo, Sprague Dawley rats; details: 10 μM applied daily on back and ears
Text: As such, to confirm whether the peptide according to an embodiment of the present invention can actually treat immune-related diseases by activating immunological functions in vivo, the present inventors examined whether the symptoms of atopic dermatitis can be ameliorated by treating the peptide on the animal model of atopic dermatitis. Specifically, to confirm whether the peptide has the effect of ameliorating dermatitis in a model of atopic dermatitis induced by capsaicin, the present inventors observed the degree of skin improvement after treating the peptide (NCP112) according to an embodiment of the present invention on the animals with atopy (Neo-Cap and 2 W Cap) in the dermis of atopy-induced skin tissue, the applied site in the dermis, and the site with scratches. Neo-Cap, which is a representative model of atopic dermatitis, was subcutaneously injected with capsaicin (50 mg/kg) on the back skin of neonatal rats (Sprague Dawley rats) of less than 48 hours to induce atopic dermatitis. 2 W Cap, which is a model mimicking of atopic dermatitis developed in adolescent period or adults, was subcutaneously injected twice with capsaicin (25 mg/kg) of 2-week-old rats (Sprague Dawley) to induce atopic dermatitis.
In 2 W-Cap model, the dermatitis score was measured one week after the capsaicin injection, and the control group (PBS) and NCP112 were applied daily on the back (200 μL) and both ears (50 μL) at a concentration of 10 μM, and the dermatitis score was measured at one-week intervals for two weeks, in the same manner as in Neo-Cap model.
The mice analyzed in Experimental Example 3-1 were treated with the peptide according to an embodiment of the present invention, and after five weeks, the mice were sacrificed. The skin tissue at the site where dermatitis was induced by capsaicin treatment was removed in a size of about 3 cm×3 cm and the tissue was fixed in a 4% paraformaldehyde solution for two to three days. […]

[2] = test system: atopic dermatitis induced by capsaicin (Neo-Cap); assay: Neo-Cap model of atopic dermatitis induced by capsaicin; format: in vivo, Sprague Dawley rats; details: 10 μM applied daily on back and ears
Description: As such, to confirm whether the peptide according to an embodiment of the present invention can actually treat immune-related diseases by activating immunological functions in vivo, the present inventors examined whether the symptoms of atopic dermatitis can be ameliorated by treating the peptide on the animal model of atopic dermatitis. […]
In Neo-Cap model, the dermatitis score was measured two weeks after the injection of capsaicin, and the control group (PBS) and NCP112 were applied daily on the back (200 μL) and both ears (50 μL) at a concentration of 10 μM, and the dermatitis score was measured at one-week intervals for three weeks. The dermatitis score was measured on the face, ears, back (total) and ears, and back (application site) according to skin conditions, and the score was standardized by setting the score at the second week (i.e., the starting point) at 1, as shown in FIG. 4.
The mice analyzed in Experimental Example 3-1 were treated with the peptide according to an embodiment of the present invention, and after five weeks, the mice were sacrificed. […]

Staphylococcus aureus = assay: antibacterial test in nutrient broth (absorbance at 600 nm); format: cell-based
Description: as §1

[3] = test system: Staphylococcus epidermidis; assay: as above; format: cell-based
Description: as §1

Pseudomonas aeruginosa = assay: as above; format: cell-based
Description: as §1

[4] = antibacterial activity of N-terminally lipid-modified peptides; format: cell-based; details: compared with peptides carrying other lipid groups (palmitoyl etc.) at the N-terminus
Text: In order to further improve the antibacterial activity of the peptides that underwent the basic screening in Example 1, the present inventors have examined the antibacterial activity of these peptides by synthesizing modified peptides in which various lipid components, such as a palmitoyl group, an octanoyl group, etc., were attached to the N-terminus of these peptides.

FPR2 = biological target: T1, FPR2 (Homo sapiens, UniProt P25090); assay: intracellular calcium ions (Fura-2/AM) in RBL cells overexpressing FPR2; format: cell-based
T1 construct: expressed in transfected cells; host or cells: RBL cells overexpressing FPR2 (FPR2-RBL)
T1 sequence (P25090 1-351): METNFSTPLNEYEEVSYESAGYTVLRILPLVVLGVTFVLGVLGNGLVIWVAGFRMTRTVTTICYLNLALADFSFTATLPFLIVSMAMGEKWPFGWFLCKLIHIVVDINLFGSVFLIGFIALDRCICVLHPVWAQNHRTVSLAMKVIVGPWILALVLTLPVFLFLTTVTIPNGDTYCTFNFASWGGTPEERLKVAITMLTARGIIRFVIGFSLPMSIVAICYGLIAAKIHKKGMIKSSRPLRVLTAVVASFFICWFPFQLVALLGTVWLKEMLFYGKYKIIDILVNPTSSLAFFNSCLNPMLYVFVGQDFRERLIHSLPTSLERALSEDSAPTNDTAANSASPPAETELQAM
Text: To examine whether the peptide according to an embodiment of the present invention activates the in vivo immunological function of a living organism, the present inventors observed the changes in calcium ion permeability. Specifically, they measured the concentration of intracellular calcium ions to examine whether the peptide activates FPR2. To this end, the present inventors used RBL cells in which FPR2 was not expressed, RBL cells in which FPR1 was overexpressed (FPR1-RBL), and RBL cells in which FPR2 was overexpressed, and used Fura-2/AM, a staining material having a strong binding affinity for calcium, as a method for sensitive measurement of the release of intracellular calcium ions. […] Approximately 2×10^6 cells were taken each time and harvested by rapid centrifugation, and resuspended in 1 mL of Locke solution in which EGTA was added but no calcium ions were added, and the absorbance ratios at two wavelengths of 340 nm and 380 nm were monitored on a spectrophotometer. After treating with the peptide of the present invention at different concentrations (1 μM, 0.1 μM, and 0.01 μM) at intervals of about 1 minute, the difference in absorbance at two wavelengths of 340 nm and 380 nm was examined and this was later converted to the concentration of calcium ions freed into the cells according to the method of Grynkiewicz.

[5] = 10 μM peptide, 18 hours, 36° C., absorbance 600 nm
[6] = versus control (PBS), week 5, FIG. 6

Substance: Oct-KFKWRYm [NCP112]
- antibacterial activity (E. coli; 0 to 20 μM peptide, FIG. 1): concentration-dependent manner
- growth of bacteria (E. coli; [5]): completely inhibited the growth
- skin conditions [1]: comparable to that of the normal conditions
- symptom of atopic dermatitis [1]: effect of ameliorating the symptom of atopic dermatitis
- epidermal layer (thickness, H&E stained skin tissue) [1, 6]: significant decrease
- symptom of atopic dermatitis [2]: effect of ameliorating the symptom of atopic dermatitis
- epidermal layer (thickness, H&E stained skin tissue) [2, 6]: slight decrease
- antibacterial activity (Staphylococcus aureus; 0 to 20 μM peptide, FIG. 1): concentration-dependent manner
- growth of bacteria (Staphylococcus aureus; [5]): completely inhibited the growth
- antibacterial activity ([3]; 0 to 20 μM peptide, FIG. 1): concentration-dependent manner
- growth of bacteria [3, 5]: completely inhibited the growth
- antibacterial activity (Pseudomonas aeruginosa; 0 to 20 μM peptide, FIG. 1): concentration-dependent manner
- growth of bacteria (Pseudomonas aeruginosa; [5]): completely inhibited the growth
- antibacterial effect compared among the 4 kinds of bacteria (Pseudomonas aeruginosa; FIG. 1): highest antibacterial effect
- antibacterial activity among modified peptides [4]: highest activity
- amount of intracellular concentration increase of calcium ions (FPR2; 1 μM, 0.1 μM and 0.01 μM peptide, FPR2-RBL cells, FIG. 2B): concentration-dependent feature
- intracellular calcium ions (FPR2; FPR2-RBL versus RBL and FPR1-RBL cells, FIG. 2A): rapidly increased specifically in FPR2-RBL cells
